# Source: US20080200461A1, “MODULATORS OF ACETYL-COENZYME A CARBOXYLASE AND METHODS OF USE THEREOF” (Cropsolution, Inc., priority 2007, published 2008)
# Biological target: Ustilago maydis K53R ACC (Mycosarcoma maydis, UniProt A0A0D1DYD5, K53R)
# Test: biochemical
# Assay type: biochemical
smiles,measurement,value
"CC[N+](CC)(CCCCN(Cc1cc(C)cc(C)c1)Cc1cc(C)cc(C)c1)Cc1cc(C)cc(C)c1.[Br-] [Compound 28, Diethyl(3,5-dimethylbenzyl)[bis-(3,5-dimethylbenzyl)aminobutyl]ammonium formate]",IC50,52 µM
